Experimental data published in PubChem BioAssay (NCI).
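96-well plates; 48 h exposure; 5 concentrations. Endpoints by linear interpolation between flanking doses. Not reached: highest tested concentration assigned. Definition used: TGI = concentration required for complete inhibition of growth.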

What was measured:
Experiment in all cases: NCI-60 cell line screen, 48 h
BT-549 breast = system: BT-549 breast
MDA-MB-435 = system: MDA-MB-435
MOLT-4 leukemia = system: MOLT-4 leukemia
HT29 colon = system: HT29 colon
SW-620 colon = system: SW-620 colon
T-47D breast = system: T-47D breast
NCI-H23 lung = system: NCI-H23 lung
COLO 205 colon = system: COLO 205 colon
SR leukemia = system: SR leukemia
UACC-257 melanoma = system: UACC-257 melanoma
UO-31 renal = system: UO-31 renal
SK-MEL-28 melanoma = system: SK-MEL-28 melanoma
KM12 colon = system: KM12 colon
NCI-H226 lung = system: NCI-H226 lung
RXF 393 renal = system: RXF 393 renal
M14 melanoma = system: M14 melanoma
PC-3 prostate = system: PC-3 prostate
A498 renal = system: A498 renal
786-0 renal = system: 786-0 renal
HOP-62 NSCLC = system: HOP-62 NSCLC
SF-539 CNS = system: SF-539 CNS
SNB-19 CNS = system: SNB-19 CNS
OVCAR-8 ovarian = system: OVCAR-8 ovarian
SN12C renal = system: SN12C renal
DU-145 prostate = system: DU-145 prostate
A549 NSCLC = system: A549 NSCLC
U251 CNS = system: U251 CNS
TK-10 renal = system: TK-10 renal
MCF7 breast = system: MCF7 breast
CCRF-CEM leukemia = system: CCRF-CEM leukemia
NCI-H460 lung = system: NCI-H460 lung
MDA-N = system: MDA-N
OVCAR-3 ovarian = system: OVCAR-3 ovarian
ACHN renal = system: ACHN renal
HCT-15 colon = system: HCT-15 colon
K-562 leukemia = system: K-562 leukemia
SF-268 CNS = system: SF-268 CNS
MALME-3M melanoma = system: MALME-3M melanoma
SF-295 CNS = system: SF-295 CNS
HOP-92 NSCLC = system: HOP-92 NSCLC
OVCAR-5 ovarian = system: OVCAR-5 ovarian
HL-60(TB) leukemia = system: HL-60(TB) leukemia
RPMI-8226 leukemia = system: RPMI-8226 leukemia
NCI/ADR-RES ovarian = system: NCI/ADR-RES ovarian
HCT-116 colon = system: HCT-116 colon
OVCAR-4 ovarian = system: OVCAR-4 ovarian
UACC-62 melanoma = system: UACC-62 melanoma
EKVX NSCLC = system: EKVX NSCLC
SK-MEL-2 melanoma = system: SK-MEL-2 melanoma
HS 578T breast = system: HS 578T breast
HCC-2998 colon = system: HCC-2998 colon
SNB-75 CNS = system: SNB-75 CNS
MDA-MB-231 breast = system: MDA-MB-231 breast
NCI-H522 lung = system: NCI-H522 lung
CAKI-1 renal = system: CAKI-1 renal
SK-OV-3 ovarian = system: SK-OV-3 ovarian
IGROV1 ovarian = system: IGROV1 ovarian
SK-MEL-5 melanoma = system: SK-MEL-5 melanoma
LOX IMVI melanoma = system: LOX IMVI melanoma

## Cc1cc(C)c(NS(=O)c2cccc(C(F)(F)F)c2)c(C)c1 (centres undefined)
BT-549 breast
  TGI: > 100 µM
MDA-MB-435
  TGI: > 100 µM
MOLT-4 leukemia
  TGI: > 100 µM
HT29 colon
  TGI: > 100 µM
SW-620 colon
  TGI: > 100 µM
T-47D breast
  TGI: > 100 µM
NCI-H23 lung
  TGI: > 100 µM
COLO 205 colon
  TGI: > 100 µM
SR leukemia
  TGI: > 100 µM
UACC-257 melanoma
  TGI: > 100 µM
UO-31 renal
  TGI: > 100 µM
SK-MEL-28 melanoma
  TGI: > 100 µM
KM12 colon
  TGI: > 100 µM
NCI-H226 lung
  TGI: > 100 µM
RXF 393 renal
  TGI: > 100 µM
M14 melanoma
  TGI: > 100 µM
PC-3 prostate
  TGI: > 100 µM
A498 renal
  TGI: > 100 µM
786-0 renal
  TGI: > 100 µM
HOP-62 NSCLC
  TGI: > 100 µM
SF-539 CNS
  TGI: > 100 µM
SNB-19 CNS
  TGI: > 100 µM
OVCAR-8 ovarian
  TGI: > 100 µM
SN12C renal
  TGI: > 100 µM
DU-145 prostate
  TGI: > 100 µM
A549 NSCLC
  TGI: > 100 µM
U251 CNS
  TGI: > 100 µM
TK-10 renal
  TGI: > 100 µM
MCF7 breast
  TGI: > 100 µM
CCRF-CEM leukemia
  TGI: > 100 µM
NCI-H460 lung
  TGI: > 100 µM
MDA-N
  TGI: > 100 µM
OVCAR-3 ovarian
  TGI: > 100 µM
ACHN renal
  TGI: > 100 µM
HCT-15 colon
  TGI: > 100 µM
K-562 leukemia
  TGI: > 100 µM
SF-268 CNS
  TGI: > 100 µM
MALME-3M melanoma
  TGI: > 100 µM
SF-295 CNS
  TGI: > 100 µM
HOP-92 NSCLC
  TGI: > 100 µM
OVCAR-5 ovarian
  TGI: > 100 µM
HL-60(TB) leukemia
  TGI: > 100 µM
RPMI-8226 leukemia
  TGI: > 100 µM
NCI/ADR-RES ovarian
  TGI: > 100 µM

## Cn1c(=O)c2ccccc2[n+]2c(-c3cccc([N+](=O)[O-])c3)csc12
HCT-116 colon
  TGI: > 100 µM
MDA-MB-435
  TGI: > 100 µM
OVCAR-4 ovarian
  TGI: > 100 µM
MOLT-4 leukemia
  TGI: > 100 µM
HT29 colon
  TGI: > 100 µM
SW-620 colon
  TGI: > 100 µM
T-47D breast
  TGI: > 100 µM
NCI-H23 lung
  TGI: > 100 µM
COLO 205 colon
  TGI: > 100 µM
SR leukemia
  TGI: 71.5 µM
UACC-257 melanoma
  TGI: > 100 µM
UO-31 renal
  TGI: > 100 µM
SK-MEL-28 melanoma
  TGI: > 100 µM
KM12 colon
  TGI: > 100 µM
NCI-H226 lung
  TGI: > 100 µM
RXF 393 renal
  TGI: > 100 µM
UACC-62 melanoma
  TGI: > 100 µM
M14 melanoma
  TGI: > 100 µM
PC-3 prostate
  TGI: > 100 µM
EKVX NSCLC
  TGI: > 100 µM
SK-MEL-2 melanoma
  TGI: > 100 µM
A498 renal
  TGI: > 100 µM
HS 578T breast
  TGI: 83.3 µM
786-0 renal
  TGI: > 100 µM
HOP-62 NSCLC
  TGI: > 100 µM
SF-539 CNS
  TGI: > 100 µM
SNB-19 CNS
  TGI: > 100 µM
OVCAR-8 ovarian
  TGI: > 100 µM
SN12C renal
  TGI: > 100 µM
DU-145 prostate
  TGI: > 100 µM
A549 NSCLC
  TGI: > 100 µM
U251 CNS
  TGI: > 100 µM
TK-10 renal
  TGI: > 100 µM
HCC-2998 colon
  TGI: > 100 µM
MCF7 breast
  TGI: > 100 µM
CCRF-CEM leukemia
  TGI: > 100 µM
NCI-H460 lung
  TGI: > 100 µM
MDA-N
  TGI: > 100 µM
SNB-75 CNS
  TGI: 82.2 µM
OVCAR-3 ovarian
  TGI: > 100 µM
MDA-MB-231 breast
  TGI: > 100 µM
NCI-H522 lung
  TGI: > 100 µM
ACHN renal
  TGI: > 100 µM
CAKI-1 renal
  TGI: > 100 µM
SK-OV-3 ovarian
  TGI: > 100 µM
K-562 leukemia
  TGI: > 100 µM
IGROV1 ovarian
  TGI: > 100 µM
SF-268 CNS
  TGI: > 100 µM
SK-MEL-5 melanoma
  TGI: > 100 µM
MALME-3M melanoma
  TGI: > 100 µM
SF-295 CNS
  TGI: > 100 µM
HOP-92 NSCLC
  TGI: > 100 µM
LOX IMVI melanoma
  TGI: > 100 µM
OVCAR-5 ovarian
  TGI: > 100 µM
HL-60(TB) leukemia
  TGI: 62.8 µM
RPMI-8226 leukemia
  TGI: > 100 µM
NCI/ADR-RES ovarian
  TGI: 83.5 µM

## Clc1sc(Cl)c2c1[C@H](Cl)C[C@@H]2Cl
BT-549 breast
  TGI: 62.5 µM
HCT-116 colon
  TGI: 20.9 µM
MDA-MB-435
  TGI: 40.2 µM
OVCAR-4 ovarian
  TGI: 52.7 µM
MOLT-4 leukemia
  TGI: > 100 µM
HT29 colon
  TGI: > 100 µM
SW-620 colon
  TGI: 19.6 µM
T-47D breast
  TGI: 72.9 µM
NCI-H23 lung
  TGI: 50 µM
COLO 205 colon
  TGI: 62.2 µM
SR leukemia
  TGI: > 100 µM
UACC-257 melanoma
  TGI: 92.9 µM
UO-31 renal
  TGI: 32.3 µM
SK-MEL-28 melanoma
  TGI: 38.1 µM
KM12 colon
  TGI: > 100 µM
NCI-H226 lung
  TGI: 39.8 µM
UACC-62 melanoma
  TGI: 43.7 µM
M14 melanoma
  TGI: 37.4 µM
EKVX NSCLC
  TGI: > 100 µM
SK-MEL-2 melanoma
  TGI: 65.9 µM
A498 renal
  TGI: > 100 µM
HS 578T breast
  TGI: 44.1 µM
786-0 renal
  TGI: 48.9 µM
HOP-62 NSCLC
  TGI: > 100 µM
SF-539 CNS
  TGI: 42.4 µM
OVCAR-8 ovarian
  TGI: 34.9 µM
SN12C renal
  TGI: 50.6 µM
DU-145 prostate
  TGI: 96.9 µM
A549 NSCLC
  TGI: 86.2 µM
U251 CNS
  TGI: 48.2 µM
TK-10 renal
  TGI: 85.1 µM
HCC-2998 colon
  TGI: 33.4 µM
MCF7 breast
  TGI: > 100 µM
CCRF-CEM leukemia
  TGI: > 100 µM
NCI-H460 lung
  TGI: > 100 µM
MDA-N
  TGI: 64.5 µM
SNB-75 CNS
  TGI: 64.7 µM
OVCAR-3 ovarian
  TGI: 70.9 µM
MDA-MB-231 breast
  TGI: 90.5 µM
NCI-H522 lung
  TGI: 3.31 µM
ACHN renal
  TGI: 95 µM
HCT-15 colon
  TGI: 41.3 µM
CAKI-1 renal
  TGI: 44.5 µM
SK-OV-3 ovarian
  TGI: > 100 µM
K-562 leukemia
  TGI: > 100 µM
IGROV1 ovarian
  TGI: 38.6 µM
SF-268 CNS
  TGI: 44.3 µM
SK-MEL-5 melanoma
  TGI: > 100 µM
MALME-3M melanoma
  TGI: 59.6 µM
SF-295 CNS
  TGI: > 100 µM
HOP-92 NSCLC
  TGI: 34.4 µM
LOX IMVI melanoma
  TGI: 25.2 µM
OVCAR-5 ovarian
  TGI: 81.2 µM
NCI/ADR-RES ovarian
  TGI: 37.4 µM

## Cc1ccc2[nH]c3c(c(=O)n(C)c(=O)n3C)c2c1
BT-549 breast
  TGI: > 100 µM
HCT-116 colon
  TGI: > 100 µM
MDA-MB-435
  TGI: > 100 µM
OVCAR-4 ovarian
  TGI: > 100 µM
MOLT-4 leukemia
  TGI: > 100 µM
HT29 colon
  TGI: > 100 µM
SW-620 colon
  TGI: > 100 µM
T-47D breast
  TGI: > 100 µM
NCI-H23 lung
  TGI: > 100 µM
COLO 205 colon
  TGI: > 100 µM
SR leukemia
  TGI: > 100 µM
UACC-257 melanoma
  TGI: > 100 µM
UO-31 renal
  TGI: > 100 µM
KM12 colon
  TGI: > 100 µM
NCI-H226 lung
  TGI: > 100 µM
UACC-62 melanoma
  TGI: > 100 µM
M14 melanoma
  TGI: > 100 µM
EKVX NSCLC
  TGI: > 100 µM
SK-MEL-2 melanoma
  TGI: > 100 µM
A498 renal
  TGI: > 100 µM
HS 578T breast
  TGI: > 100 µM
786-0 renal
  TGI: > 100 µM
HOP-62 NSCLC
  TGI: > 100 µM
SF-539 CNS
  TGI: > 100 µM
SNB-19 CNS
  TGI: > 100 µM
OVCAR-8 ovarian
  TGI: > 100 µM
SN12C renal
  TGI: > 100 µM
DU-145 prostate
  TGI: > 100 µM
A549 NSCLC
  TGI: > 100 µM
U251 CNS
  TGI: > 100 µM
TK-10 renal
  TGI: > 100 µM
HCC-2998 colon
  TGI: > 100 µM
MCF7 breast
  TGI: > 100 µM
CCRF-CEM leukemia
  TGI: > 100 µM
MDA-N
  TGI: > 100 µM
SNB-75 CNS
  TGI: > 100 µM
MDA-MB-231 breast
  TGI: > 100 µM
NCI-H522 lung
  TGI: > 100 µM
ACHN renal
  TGI: > 100 µM
HCT-15 colon
  TGI: > 100 µM
CAKI-1 renal
  TGI: > 100 µM
SK-OV-3 ovarian
  TGI: > 100 µM
K-562 leukemia
  TGI: > 100 µM
IGROV1 ovarian
  TGI: > 100 µM
SF-268 CNS
  TGI: > 100 µM
SK-MEL-5 melanoma
  TGI: > 100 µM
MALME-3M melanoma
  TGI: > 100 µM
SF-295 CNS
  TGI: > 100 µM
HOP-92 NSCLC
  TGI: > 100 µM
LOX IMVI melanoma
  TGI: > 100 µM
OVCAR-5 ovarian
  TGI: > 100 µM
HL-60(TB) leukemia
  TGI: > 100 µM
RPMI-8226 leukemia
  TGI: > 100 µM
NCI/ADR-RES ovarian
  TGI: > 100 µM
